# Data published in patent publication US12679824B2 (Hoffmann-La Roche Inc., priority 2020, dated 2026).
# System: Acinetobacter baumannii ATCC17961
# Assay: 90% Growth Inhibitory Concentration (IC90) determination, antimicrobial susceptibility testing
# Format: cell-based
# Settings: Acinetobacter baumannii ATCC17961; Iso-Sensitest broth; growth by optical density at 600 nm over 16h; concentration inhibiting 90% of the growth; read-out: ATCC 17961 IC90
# Method in brief: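 Broth microdilution in Iso-Sensitest medium, compounds twofold diluted (e.g. 50–0.097 μM final), inoculum ~5×10^(5) CFU/ml, 35±2° C. OD600 was read every 20 min over 16 h. IC90 was derived from growth inhibition during logarithmic growth.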
row,SMILES,IC90 [nM]
1,"Cn1c(-c2cn(-c3ccc(N)cn3)nc2C(F)(F)F)cnc1C(=O)Nc1ccc(C(=O)N[C@H]2C[C@@H](NC(=O)[C@@H]3C[C@@H](O)CN3)C2)c(Cl)c1 (stereo in doubt) [Example Z42, 5-[1-(5-amino-2-pyridyl)-3-(trifluoromethyl)pyrazol-4-yl]-N-[3-chloro-4-[cis-[3-[[(2S,4R)-4-hydroxyprolyl]amino]cyclobutyl]carbamoyl]phenyl]-1-methyl-imidazole-2-carboxamide]",630

# Same assay, conditions: Acinetobacter baumannii, ATCC17961, 16 h, Acinetobacter baumannii ATCC17961; Iso-Sensitest broth; growth by optical density at 600 nm over 16h; concentration inhibiting 90% of the growth; read-out: ATCC 17961 IC90
row,SMILES,IC90 [nM]
1,"COCCNc1ccc(-n2cc(-c3cnc(C(=O)Nc4ccc(C(=O)N5CCN(C(=O)C6CCNCC6)CC5)c(Cl)c4)n3C)c(C(F)(F)F)n2)nc1 [Example C2, N-[3-chloro-4-[4-(piperidine-4-carbonyl)piperazine-1-carbonyl]phenyl]-5-[1-[5-(2-methoxyethylamino)-2-pyridyl]-3-(trifluoromethyl)pyrazol-4-yl]-1-methyl-imidazole-2-carboxamide]",340
2,"Cc1ccc(-n2cc(-c3cnc(C(=O)Nc4ccc(C(=O)N5CCN(C(=O)C6CCNCC6)CC5)c(Cl)c4)n3C)c(C(F)(F)F)n2)nc1 [Example E6, N-[3-chloro-4-[4-(piperidine-4-carbonyl)piperazine-1-carbonyl]phenyl]-1-methyl-5-[1-(5-methyl-2-pyridyl)-3-(trifluoromethyl)pyrazol-4-yl]imidazole-2-carboxamide]",350
3,"Cn1c(-c2cn(-c3ccc(N)cn3)nc2C(F)(F)F)cnc1C(=O)Nc1ccc(C(=O)N2CC3CCCC(C2)N3)c(Cl)c1 [Example Z53, 5-[1-(5-amino-2-pyridyl)-3-(trifluoromethyl)pyrazol-4-yl]-N-[3-chloro-4-(3,9-diazabicyclo[3.3.1]nonane-3-carbonyl)phenyl]-1-methyl-imidazole-2-carboxamide]",500
4,"Cn1c(-c2cn(-c3ccc(N)cn3)nc2C(F)(F)F)cnc1C(=O)Nc1ccc(C(=O)N2CC3CNCC3C2)c(Cl)c1 (stereo not shown) [Example Z12, N-[4-(2,3,3a,4,6,6a-hexahydro-1H-pyrrolo[3,4-c]pyrrole-5-carbonyl)-3-chloro-phenyl]-5-[1-(5-amino-2-pyridyl)-3-(trifluoromethyl)pyrazol-4-yl]-1-methyl-imidazole-2-carboxamide]",930
5,"Cn1c(-c2cn(-c3ccc(N)cn3)nc2C(F)(F)F)cnc1C(=O)Nc1ccc(C(=O)N[C@@H]2CC[C@@H](NC(=O)[C@@H]3C[C@@H](O)CN3)C2)c(Cl)c1 [Example Z23, 5-[1-(5-amino-2-pyridyl)-3-(trifluoromethyl)pyrazol-4-yl]-N-[3-chloro-4-[[(1R,3R)-3-[[(2S,4R)-4-hydroxyprolyl]amino]cyclopentyl]carbamoyl]phenyl]-1-methyl-imidazole-2-carboxamide]",360
6,"Cn1c(-c2cn(-c3ncc(F)cn3)nc2C(F)(F)F)cnc1C(=O)Nc1ccc(C(=O)N2CCN(C(=O)C3CCNCC3)CC2)c(Cl)c1 [Example A8, N-[3-chloro-4-[4-(piperidine-4-carbonyl)piperazine-1-carbonyl]phenyl]-5-[1-(5-fluoropyrimidin-2-yl)-3-(trifluoromethyl)pyrazol-4-yl]-1-methyl-imidazole-2-carboxamide]",910
7,"Cn1c(-c2cn(-c3ccc(N)cn3)nc2C(F)(F)F)cnc1C(=O)Nc1ccc(C(=O)N2CC[C@H](CNC(=O)[C@@H]3C[C@@H](O)CN3)C2)c(Cl)c1 [Example Z44, 5-[1-(5-amino-2-pyridyl)-3-(trifluoromethyl)pyrazol-4-yl]-N-[3-chloro-4-[(3R)-3-[[[(2S,4R)-4-hydroxyprolyl]amino]methyl]pyrrolidine-1-carbonyl]phenyl]-1-methyl-imidazole-2-carboxamide]",810
8,"COCc1c[nH]nc1-n1cc(-c2cnc(C(=O)Nc3ccc(C(=O)N4CCN(C(=O)C5CCN(C)CC5)CC4)c(Cl)c3)n2C)c(C(F)(F)F)n1 [Example Z9, N-[3-chloro-4-[4-(1-methylpiperidine-4-carbonyl)piperazine-1-carbonyl]phenyl]-5-[1-[4-(methoxymethyl)-1H-pyrazol-3-yl]-3-(trifluoromethyl)pyrazol-4-yl]-1-methyl-imidazole-2-carboxamide]",1080
9,"Cn1c(-c2cn(-c3ccc(N)cn3)nc2C(F)(F)F)cnc1C(=O)Nc1ccc(C(=O)NC2CC(CN)(CCl)C2)c(Cl)c1 (stereo not shown) [Example Z15, N-[4-[[3-(aminomethyl)-3-(chloromethyl)cyclobutyl]carbamoyl]-3-chloro-phenyl]-5-[1-(5-amino-2-pyridyl)-3-(trifluoromethyl)pyrazol-4-yl]-1-methyl-imidazole-2-carboxamide]",910
10,"CC[C@@H]1CNCCN1C(=O)c1ccc(NC(=O)c2ncc(-c3cn(-c4ccc(N)cn4)nc3C(F)(F)F)n2C)cc1Cl [Example Z63, 5-[1-(5-amino-2-pyridyl)-3-(trifluoromethyl)pyrazol-4-yl]-N-[3-chloro-4-[(2R)-2-ethylpiperazine-1-carbonyl]phenyl]-1-methyl-imidazole-2-carboxamide]",1170
11,"Cn1c(-c2cn(-c3ccc(NCCC(N)=O)cn3)nc2C(F)(F)F)cnc1C(=O)Nc1ccc(C(=O)N2CCN(C(=O)C3CCNCC3)CC2)c(Cl)c1 [Example C3, 5-[1-[5-[(3-amino-3-oxo-propyl)amino]-2-pyridyl]-3-(trifluoromethyl)pyrazol-4-yl]-N-[3-chloro-4-[4-(piperidine-4-carbonyl)piperazine-1-carbonyl]phenyl]-1-methyl-imidazole-2-carboxamide]",1200
12,"Cn1c(-c2cn(-c3cc(N)c(N)cn3)nc2C(F)(F)F)cnc1C(=O)Nc1ccc(C(=O)N2CCN(C(=O)C3CCNCC3)CC2)c(Cl)c1 [Example Z87, N-[3-chloro-4-[4-(piperidine-4-carbonyl)piperazine-1-carbonyl]phenyl]-5-[1-(4,5-diamino-2-pyridyl)-3-(trifluoromethyl)pyrazol-4-yl]-1-methyl-imidazole-2-carboxamide]",540
13,"Cn1c(-c2cn(-c3ccc(N)cn3)nc2C(F)(F)F)cnc1C(=O)Nc1ccc(C(=O)N2CCC(CN)CC2)c(Cl)c1 [Example Z14, N-[4-[4-(aminomethyl)piperidine-1-carbonyl]-3-chloro-phenyl]-5-[1-(5-amino-2-pyridyl)-3-(trifluoromethyl)pyrazol-4-yl]-1-methyl-imidazole-2-carboxamide]",850
14,"Cn1c(-c2cn(-c3ccc(N)cn3)nc2C(F)(F)F)cnc1C(=O)Nc1ccc(C(=O)NCC2(NC(=O)[C@@H]3CC(O)CN3)CC2)c(Cl)c1 (stereo in doubt) [Example Z43, 5-[1-(5-amino-2-pyridyl)-3-(trifluoromethyl)pyrazol-4-yl]-N-[3-chloro-4-[[1-[[(2S,4R)-4-hydroxyprolyl]amino]cyclopropyl]methylcarbamoyl]phenyl]-1-methyl-imidazole-2-carboxamide]",1220
15,"Cn1c(-c2cn(-c3ccc(N)cn3)nc2C(F)(F)F)cnc1C(=O)Nc1ccc(C(=O)NCCOCCN)c(Cl)c1 [Example Z21, N-[4-[2-(2-aminoethoxy)ethylcarbamoyl]-3-chloro-phenyl]-5-[1-(5-amino-2-pyridyl)-3-(trifluoromethyl)pyrazol-4-yl]-1-methyl-imidazole-2-carboxamide]",670
16,"Cc1c[nH]nc1-n1cc(-c2cnc(C(=O)Nc3ccc(C(=O)N4CCN(C(=O)C5CCN(C)CC5)CC4)c(Cl)c3)n2C)c(C(F)(F)F)n1 [Example C15, N-[3-chloro-4-[4-(1-methylpiperidine-4-carbonyl)piperazine-1-carbonyl]phenyl]-1-methyl-5-[1-(4-methyl-1H-pyrazol-3-yl)-3-(trifluoromethyl)pyrazol-4-yl]imidazole-2-carboxamide]",910
17,"Cn1c(-c2cn(-c3ccc(N)cn3)nc2C(F)(F)F)cnc1C(=O)Nc1ccc(C(=O)N2CCNCC23CC3)c(Cl)c1 [Example Z67, 5-[1-(5-amino-2-pyridyl)-3-(trifluoromethyl)pyrazol-4-yl]-N-[3-chloro-4-(4,7-diazaspiro[2.5]octane-4-carbonyl)phenyl]-1-methyl-imidazole-2-carboxamide]",890
18,"COc1ccnc(-n2cc(-c3cnc(C(=O)Nc4ccc(C(=O)N5CCN(C(=O)C6CCNCC6)CC5)c(Cl)c4)n3C)c(C(F)(F)F)n2)c1 [Example A12, N-[3-chloro-4-[4-(piperidine-4-carbonyl)piperazine-1-carbonyl]phenyl]-5-[1-(4-methoxy-2-pyridyl)-3-(trifluoromethyl)pyrazol-4-yl]-1-methyl-imidazole-2-carboxamide]",250
19,"Cn1c(-c2cn(-c3cnccn3)nc2C(F)(F)F)cnc1C(=O)Nc1ccc(C(=O)N2CCN(C(=O)C3CCNCC3)CC2)c(Cl)c1 [Example A20, N-[3-chloro-4-[4-(piperidine-4-carbonyl)piperazine-1-carbonyl]phenyl]-1-methyl-5-[1-pyrazin-2-yl-3-(trifluoromethyl)pyrazol-4-yl]imidazole-2-carboxamide]",480
20,"Cn1c(-c2cn(-c3ccc(N)cn3)nc2C(F)(F)F)cnc1C(=O)Nc1ccc(C(=O)N2CC[C@@H](CN)C2)c(Cl)c1 [Example Z7, N-[4-[(3S)-3-(aminomethyl)pyrrolidine-1-carbonyl]-3-chloro-phenyl]-5-[1-(5-amino-2-pyridyl)-3-(trifluoromethyl)pyrazol-4-yl]-1-methyl-imidazole-2-carboxamide]",250

# Same assay, conditions: Acinetobacter baumannii, ATCC17961, 16 h, read-out: ATCC 17961 IC90
row,SMILES,IC90 [nM]
1,"Cn1c(-c2cn(-c3ccc(N)cn3)nc2C(F)(F)F)cnc1C(=O)Nc1ccc(C(=O)N2CCC(CNC(=O)[C@@H]3C[C@@H](O)CN3)CC2)c(Cl)c1 [Example Z45, 5-[1-(5-amino-2-pyridyl)-3-(trifluoromethyl)pyrazol-4-yl]-N-[3-chloro-4-[4-[[[(2S,4R)-4-hydroxyprolyl]amino]methyl]piperidine-1-carbonyl]phenyl]-1-methyl-imidazole-2-carboxamide]",650
